For data set [1], the system named is human hepatocytes. Kind of data set: In vitro metabolic stability in human hepatocytes. Type of data set: in vitro ADME. Particulars: 1 μM, 37° C., up to 60 min. The procedure:
The linear or macrocyclic compounds 1-8, 11-14 and 23-26 (SEQ ID NOs: 1-8, 11-14 and 23-26) were incubated in concentration 1 μM with pooled cryopreserved human hepatocytes (mixed gender; 400 pl, 1.0 million viable cells/ml) for different time points (0, 20, 40 or 60 min) at 37° C. The cell density and viability were determined by trypan blue is exclusion method. The incubation was terminated by acetonitrile. The collected samples were centrifuged for 20 min at 2272×g and analyzed. The samples were analyzed by UPLC/PDA with high resolution mass spectrometry (QE-Orbitrap-MS on DDI mode) to monitor disappearance of the compound. Verapramil 1 μM was used as a disappearance rate control. The analytical method was optimized by using the parent compounds for optimum chromatographic properties (peak shape and retention) and mass spectrometric ionization. The Ion chromatograms were extracted from the total ion chromatograms using calculated monoisotopic accurate masses with 5 mDa window. Disappearance was based on LC/MS peak areas, marking 0 min as 100%. The first-order rate constants k (min-1) of the metabolism were obtained from the slope of time versus logarithm (% of remaining compound) plot using Excel software. The in vitro half-life (t1/2) of study compound is defined as: t1/2In2/k. Calculated half-life is based on compound disappearance in human liver hepatocytes.

In data set [2] the test system is 3D in vitro model of blood-brain barrier. Kind of data set: Permeation in a 3D in vitro model of blood-brain barrier. Type of data set: in vitro ADME, human endothelial cells, rat astrocytes and cortical neurons. Particulars: 500 nM, 2 h. The procedure:
Due to the interest of developing CDNF- and MANF-derived peptides for treatment of CNS diseases with peripheral route of administration, and the fact that macrocyclization can improve cell-penetration and distribution properties of peptides, the ability of the compounds to pass the blood-brain barrier was tested in an established in vitro model of the blood-brain barrier. For this purpose, macrocyclic and linear compounds were incubated at 500 nM for 2 h in a two-compartment in vitro blood-brain barrier model (n=4) followed by sample collection is and LC-MS/MS analysis.
Primary culture of astrocytes. Rat astrocytes were prepared from a E15 embryos. Briefly, pregnant female rats (Wistar, Janvier Labs) of 15 days of gestation were deeply anesthetized in a (CO2 chamber) and then killed by cervical dislocation. Fetuses were collected and immediately placed in ice-cold L15 Leibovitz medium with a 2% penicillin (10,000 U/mL) and streptomycin (10 mg/mL) solution (PS) and 1% bovine serum albumin (BSA). Full brains were treated for 20 min at 37° C. with a trypsin- EDTA solution at a final concentration of 0.05% trypsin and 0.02% EDTA. Dissociated cells were cultured in DMEM 10% fetal calf serum. Purified astrocytes were used at passage 4 (P4).
Culture of human endothelial cells. A vial of HBMEC (Primary Human Brain Microvascular Endothelial Cells, ACBRI 376) was used at a specific passage 8 (P8).
Primary culture of cortical neurons. Rat cortical neurons were cultured as described by Callizot et al., 2013 with modification. Briefly, pregnant female rats (Wistar, Janvier Labs) of […] were deeply anesthetized in a CO2 chamber and then killed by cervical io dislocation. Fetuses were collected and immediately placed in ice-cold L15 Leibovitz medium with a 2% penicillin (10,000 U/mL) and streptomycin (10 mg/mL) solution (PS) and 1% bovine serum albumin (BSA). Cortices were treated for 20 min at 37° C. with a trypsin-EDTA solution at a final concentration of 0.05% trypsin and 0.02% EDTA. The dissociation was stopped by addition of Dulbecco's modified Eagle's medium (DMEM) with 4.5 g/L of glucose, containing is DNAse I grade II (final concentration 0.5 mg/m L) and 10% fetal calf serum (FCS). Cells were mechanically dissociated by three forced passages through the tip of a 10-m1 pipette. Cells were then centrifuged at 515×g for 10 min at 4° C. The pellet resuspended in a defined culture medium consisting of Neurobasal medium with a 2% solution of B27 supplement, 2 mmol/L of L-glutamine, 2% of PS solution, 10 ng/mL of brain-derived neurotrophic factor (BDNF). Viable cells were counted in a Neubauer cytometer, using the trypan blue exclusion test. The cortical neurons were seeded in the bottom of well pre-coated with poly-L-lysine at a density of 255,000 per well in 24-well plate with insert and cultured at 37° C. in an air (95%)-CO2 (5%) incubator. The culture medium was changed every other day.
Co-Culture of endothelial cells, astrocytes and primary cortical neurons. The procedure was performed as previously published (Xue et al., 2013 with modifications, Callizot et al., 2017). Briefly, on day 0, purified astrocytes (P4) were rapidly thawed in a water bath at 37° C. The cells were immediately put in DMEM containing 10% of FCS. Cell suspension was centrifuged at 515×g for 5 min at 4° C. and the pellets were suspended in DMEM F12 containing 10% of FCS. Cells were seeded in the outer side of the insert membrane (PET, 1 μm) at the density of 45,000 cells per insert and cultured at 37° C. in an air (95%)-CO2 (5%) incubator. Thirty-six (36) hours after the astrocytes seeding, HBMEC (P8) were rapidly thawed in a water bath at 37° C. and immediately put in DMEM containing 10% of FCS. Cell suspension was centrifuged at 515×g for 5 min at 4° C. and the pellets were suspended in EGM-2 bullet kit containing 5% of FCS, 1% of PS solution, 1.4 μM of Hydrocortisone, 5 μg/mL of acid ascorbic, 1% of lipid mixture, 10 mM of HEPES, 1 ng/mL of bFGF. […]

A short description of data set [3]: In vitro metabolic stability in rat plasma. Type of data set: in vitro ADME. The conditions noted are these: 1 μM, 37° C., up to 120 min. The procedure: The linear and macrocyclic compounds 1-14 and 23-26 (SEQ ID NOs: 1-14 and 23-26) were incubated in concentration 1 μM with rat plasma (Sprague-Dawley, male; 400 μl) for different time points (0, 20, 40, 60 or 120 min) at 37° C. The incubation was terminated by acetonitrile. The collected samples were centrifuged for 20 min at 2272×g and analyzed. io Stock solutions were prepared using 50% DMSO, and the compounds were spiked 1/100 to incubation to have final DMSO content of 0.5%. The samples were analyzed by UHPLC/PDA with high resolution mass spectrometry (QE-Orbitrap-MS on DDI mode) to monitor disappearance of the compound. Enalapril 1 μM was used as a disappearance rate control. For analysis of compounds 9, 10, 13 and 14 stock solutions were prepared with PBS, and samples were analyzed by UHPLC-ToF mass spectrometry. The analytical method was optimized by using the parent compounds for optimum chromatographic properties (peak shape and retention) and mass spectrometric ionization. The ion chromatograms were extracted from the total ion chromatograms using calculated monoisotopic accurate masses with 5 mDa window. Disappearance was based on LC/MS peak areas, marking 0 min as 100%.
The first-order rate constants k (min-1) of the metabolism were obtained from the slope of time versus logarithm (% of remaining compound) plot using Excel software. The in vitro half-life (t1/2) of study compound is defined as: t1/2=In2/k. Calculated half-life is based on compound disappearance from rat plasma.

The subject of data set [4] is rat hepatocytes. As to the kind of experiment: In vitro metabolic stability in rat hepatocytes. Particulars: 1 μM, 37° C., up to 60 min. Type of data set: in vitro ADME. The procedure: The linear or macrocyclic compounds 1-14 and 23-26 (SEQ ID NOs: […]) were incubated in concentration 1 μM with pooled cryopreserved rat hepatocytes (Sprague-Dawley, male; 400 pl, 1.0 million viable cells/ml for compounds 1-8, 11-12 and 23-26 or 100 μl, 0.1 million viable cells/ml for compounds 9-10 and 13-14) for different time points (0, 10, 20, 40 or 60 min) at 37° C. The cell density and viability were determined by trypan blue exclusion method. The incubation was terminated by acetonitrile. The collected samples were centrifuged for 20 min at 2272×g and analyzed. The samples were analyzed is by UHPLC/PDA with high resolution mass spectrometry (QE-Orbitrap-MS on DDI mode) (compounds 1-8, 11-12 and 23-26) or HHPLC-ToF mass spectrometry (for compounds 9-and 13-14) to monitor disappearance of the compound. Verapramil 1 μM was used as a disappearance rate control. The analytical method was optimized by using the parent compounds for optimum chromatographic properties (peak shape and retention) and mass spectrometric ionization. The Ion chromatograms were extracted from the total ion chromatograms using calculated monoisotopic accurate masses with 5 mDa window. Disappearance was based on LC/MS peak areas, marking 0 min as 100%. The first-order rate constants k (min-1) of the metabolism were obtained from the slope of time versus logarithm (% of remaining compound) plot using Excel software. The in vitro half-life (t1/2) of study compound is defined as: t1/2In2/k. Calculated half-life is based on compound disappearance in rat liver hepatocytes.

Bridge positions count the residues as written; N and C are the ends. Peptide text beside a SMILES is read from it.

With `CC[C@H](C)[C@@H]1NC(=O)[C@H](CCCCN)NC(=O)[C@H](CCCCN)NC(=O)[C@H](CC(C)C)NC(=O)[C@H](CCC(=O)O)NC(=O)[C@H](CCCCN)NC(=O)[C@H](C(C)C)NC(=O)[C@H](CCCNC(=N)N)NC(=O)[C@H](CC(C)C)NC(=O)[C@H](CCCCN)NC(=O)[C@H](CCCCN)NC(=O)[C@H](CC(C)C)NC(=O)[C@H](CC(=O)O)NC(=O)[C@H](C(C)C)NC(=O)[C@H](CCC(=O)O)NC(=O)[C@H](C)NC(=O)[C@@H]2CSSC[C@H](NC(=O)[C@H]([C@@H](C)O)NC(=O)[C@H](CCC(=O)O)NC(=O)CNC(=O)[C@H](Cc3c[nH]c4ccccc34)NC(=O)[C@H](CC(=O)O)NC(=O)[C@H](CC(=O)O)NC(=O)[C@H](CC(C)C)NC1=O)C(=O)N[C@@H](CCCCN)C(=O)NCC(=O)N2` [Compound 4] (cyclo(AEVDLKKLRVKELKKILDDWGETCKGC); disulfide 24-27), the “stability in human hepatocytes as compared to linear counterpart” value in data set [1] is “significantly improved stability”. For the same compound, in data set [2], the “ability to pass through the in vitro blood-brain barrier as compared to linear counterpart” value is “improved ability to pass”. In addition, the “stability in rat plasma as compared to linear counterpart” value in data set [3] is listed as “improved stability”. Also, in data set [4], the “stability in rat hepatocytes as compared to linear counterpart” value is on record as “significantly improved stability”.
